Test results as given in patent US8653095B2, “Small molecules with antimalarial activity” (Radix Pharmaceuticals, Inc., priority 2011, dated 2014).
Like-named read-outs stand apart in the source and are kept apart here.

What was measured:
P. falciparum PH3 = assay: In vitro blood stage antimalarial efficacy, [3H]hypoxanthine uptake, strain PH3; assay type: cell-based; conditions: Plasmodium falciparum
Procedure: (§1) In Vitro Blood Stage Antimalarial Efficacy Evaluation. New compounds were tested against a panel of strains of P. falciparum.
(§2) Test compounds were initially dissolved in DMSO and diluted 400 fold in RPMI 1640 culture medium supplemented with 25 mM Hepes, 32 mM NaHCO3 and 10% Albumax I (Gibco, NY). These solutions were subsequently serially diluted two-fold with a Beckman Biomek® 1000 Robot (Fullerton, Calif.) over 11 different concentrations. The parasites were exposed to serial dilutions of each compound for 48 hrs and incubated at 37° C. with 5% O2, 5% CO2 and 90% N2 prior to the addition of [^3H]hypoxanthine. After a further incubation of 18 hrs, parasite DNA was harvested from each microtiter well using Packard Filtermate™ 196 Harvester (Meriden, Conn.) onto glass filters. Uptake of [^3H]hypoxanthine was measured with a Packard TopCount Liquid Scintillation Counter (Packard Instrument Co.).

P. falciparum 3D7 = assay: In vitro blood stage antimalarial efficacy, [3H]hypoxanthine uptake, strain 3D7; assay type: cell-based; conditions: Plasmodium falciparum
Procedure: as §1, §2

P. falciparum DD2 = assay: In vitro blood stage antimalarial efficacy, [3H]hypoxanthine uptake, strain DD2; assay type: cell-based; conditions: Plasmodium falciparum
Procedure: as §1, §2

P. falciparum TM6 = assay: In vitro blood stage antimalarial efficacy, [3H]hypoxanthine uptake, strain TM6; assay type: cell-based; conditions: Plasmodium falciparum
Procedure: as §1, §2

P. falciparum K1 = assay: In vitro blood stage antimalarial efficacy, [3H]hypoxanthine uptake, strain K1; assay type: cell-based; conditions: Plasmodium falciparum
Procedure: as §1, §2

P. falciparum TM4 = assay: In vitro blood stage antimalarial efficacy, [3H]hypoxanthine uptake, strain TM4; assay type: cell-based; conditions: Plasmodium falciparum
Procedure: as §1, §2

P. falciparum V1S = assay: microbe, parasite or virus in culture; assay type: cell-based; conditions: Plasmodium falciparum
Procedure: as §1, §2

rodent P. berghei = conditions: for MCureD (minimum curative dose): rodent P. berghei
Procedure: Antimalarial potency was measured by determination of the MCD (minimum clearance dose), a commonly used efficacy measurement. The primary therapeutic indices, which were obtained by using the MCDs as the effective parameters, were calculated. A secondary therapeutic indices measure of antimalarial potency was determined by use of the dose for the MCureD (minimum curative dose).

[1] = test system: Liver stage of P. yoelii yoelii; assay: In vitro liver-stage antimalarial efficacy evaluation; assay type: cell-based; conditions: Plasmodium yoelii
Procedure: In Vitro Liver-Stage Antimalarial Efficacy Evaluation. Any new desirable antimalarial drug should be broad spectrum: it should be active against both the blood stage and the liver stage of the parasite. New compounds were assessed on the Plasmodium yoelii liver stage in vitro. The liver stage of P. yoelii is a parasite of rodent extensively used as an experimental model for studying the initial phase of the malaria infection.

Plasmodium cynomolgi = assay: Radical curative activity in relapsed Rhesus monkeys; assay type: in vivo; conditions: CQ alone 10 mg/kg/day for 7 days, no drug 2
Source text: Compounds with antihypnozoite activity will delay the relapse or radically cure the infection. […] Relapse was expected in the control group. Relapse in the treated group indicates failure of the test compounds. […] After standard treatment, blood smears were monitored daily for 4 consecutive days of negative results and 2 times weekly for 2 weeks.

P. berghei NK-65 = assay: In vivo efficacy in Swiss mice infected with P. berghei; conditions: Plasmodium berghei, 96 h; P. berghei NK-65, Swiss mice, oral once daily for 4 days; read-out: ED50
[2] = test system: P. falciparum African NF54 strain; assay: In vivo efficacy in immunocompromised BXN mice infected with P. falciparum NF54; conditions: Plasmodium falciparum, 96 h, oral once daily for 4 days
Source text: (§3) Antimalarial efficacy data was obtained by evaluating new compounds in two rodent models: (I) Swiss mice infected with rodent malaria strain P. berghei; (II) Immunocompromised BXN mice infected with either the sensitive P. falciparum African NF54 strain or the multi-drug resistant P. falciparum Thailand T24 strain.

[3] = test system: multi-drug resistant P. falciparum Thailand T24 strain; assay: In vivo efficacy in immunocompromised BXN mice infected with P. falciparum T24; conditions: Plasmodium falciparum, 96 h, oral once daily for 4 days
Source text: as §3

[4] = Sprague-Dawley, rat, in vivo, po

Compound: CCN(CC)Cc1cc(Nc2ccnc3cc(Cl)ccc23)ccc1O [Amodiaquine, reference compound]
- IC50 (P. falciparum PH3; read-out: IC50): 15.9 ± 3.2 nM
- IC50 (P. falciparum 3D7; read-out: IC50): 4.9 ± 1.8 nM
- IC50 (P. falciparum DD2; read-out: IC50): 9.1 ± 1.2 nM
- IC50 (P. falciparum TM6; read-out: IC50): 7.5 ± 2.4 nM
- IC50 (P. falciparum K1; read-out: IC50): 21.2 ± 2.1 nM
- IC50 (P. falciparum TM4; read-out: IC50): 15.2 ± 2.6 nM
- IC50 (P. falciparum V1S): 8.7 ± 2.5 nM

Compound: C[C@H]1[C@H](OC(=O)CCC(=O)O)O[C@@H]2O[C@@]3(C)CC[C@H]4[C@H](C)CC[C@@H]1[C@@]24OO3 [Artesunate]
- Primary therapeutic index (rodent P. berghei; MTD divided by MCD, route iv): 37
- Secondary therapeutic index (rodent P. berghei; MTD divided by MCureD, route iv): 10
- MCureD (minimum curative dose) (rodent P. berghei; route iv): 25.4 mg/kg
- MTD (maximum tolerated dose) (rats, route iv): 250 mg/kg

Compound: O=C1C(O)=C([C@H]2CC[C@H](c3ccc(Cl)cc3)CC2)C(=O)c2ccccc21 [Atovaquone, reference compound]
- IC50 [1]: 57 nM

Compound: CCN(CC)CCCC(C)Nc1ccnc2cc(Cl)ccc12 (stereo not shown) [Chloroquine, reference compound]
- IC50 (P. falciparum PH3): 33.4 ± 9.1 nM
- IC50 (P. falciparum 3D7): 9.7 ± 3.4 nM
- IC50 (P. falciparum DD2): 45.8 ± 10.2 nM
- IC50 (P. falciparum TM6): 96.4 ± 6.9 nM
- IC50 (P. falciparum K1): 166 ± 19.3 nM
- IC50 (P. falciparum TM4): 115 ± 12.7 nM
- IC50 (P. falciparum V1S): 152 ± 14.1 nM
- MCureD (minimum curative dose) (rodent P. berghei; administered orally): None
- Results (radical curative test) (Plasmodium cynomolgi): relapse
- Days post-treatment (relapse) (Plasmodium cynomolgi; one value per monkey): 9 days
- MTD (maximum tolerated dose) (rats, administered orally (intragastric), observed 2 weeks): 240 mg/kg

Compound: C[C@H]1[C@@H](O)O[C@@H]2O[C@@]3(C)CC[C@H]4[C@H](C)CC[C@@H]1[C@@]24OO3 [Dihydroartemisinin, reference compound]
- ED50 (P. berghei NK-65): 0.56 mg/kg
- ED50 [2]: 1.1 mg/kg
- ED50 [3]: 1.2 mg/kg

Compound: OC(c1cc(C(F)(F)F)nc2c(C(F)(F)F)cccc12)C1CCCCN1 (stereo not shown) [Mefloquine]
- Primary therapeutic index (rodent P. berghei; [4]): 60
- Secondary therapeutic index (rodent P. berghei; [4]): 15
- MCureD (minimum curative dose) (rodent P. berghei; administered orally): 40.5 mg/kg
- MTD (maximum tolerated dose) (Sprague-Dawley, rat, in vivo, po, 2 weeks): 600 mg/kg

Compound: COc1cc(NC(C)CCCN)c2ncccc2c1 (stereo not shown) [Primaquine, reference compound]
- IC50 [1]: 76 nM
